The record followed here is patent publication US9593110B2, “Neprilysin inhibitors” (Theravence Biopharma R&D IP, LLC, priority 2014, dated 2017).

Structures are written as SMILES. Where only a bound is given, the exact number is not on record here.

A word on the Ki: it is the dissociation constant of the complex between target and ligand, obtained from inhibition or displacement.

The assay deals with human NEP (Homo sapiens (Human), UniProt P08473). Description: In vitro enzyme inhibition assay at human NEP. Conditions: recombinant human NEP, fluorogenic peptide substrate, 37° C.; for Ki: pKi.
Sequence of human NEP (P08473 52-750): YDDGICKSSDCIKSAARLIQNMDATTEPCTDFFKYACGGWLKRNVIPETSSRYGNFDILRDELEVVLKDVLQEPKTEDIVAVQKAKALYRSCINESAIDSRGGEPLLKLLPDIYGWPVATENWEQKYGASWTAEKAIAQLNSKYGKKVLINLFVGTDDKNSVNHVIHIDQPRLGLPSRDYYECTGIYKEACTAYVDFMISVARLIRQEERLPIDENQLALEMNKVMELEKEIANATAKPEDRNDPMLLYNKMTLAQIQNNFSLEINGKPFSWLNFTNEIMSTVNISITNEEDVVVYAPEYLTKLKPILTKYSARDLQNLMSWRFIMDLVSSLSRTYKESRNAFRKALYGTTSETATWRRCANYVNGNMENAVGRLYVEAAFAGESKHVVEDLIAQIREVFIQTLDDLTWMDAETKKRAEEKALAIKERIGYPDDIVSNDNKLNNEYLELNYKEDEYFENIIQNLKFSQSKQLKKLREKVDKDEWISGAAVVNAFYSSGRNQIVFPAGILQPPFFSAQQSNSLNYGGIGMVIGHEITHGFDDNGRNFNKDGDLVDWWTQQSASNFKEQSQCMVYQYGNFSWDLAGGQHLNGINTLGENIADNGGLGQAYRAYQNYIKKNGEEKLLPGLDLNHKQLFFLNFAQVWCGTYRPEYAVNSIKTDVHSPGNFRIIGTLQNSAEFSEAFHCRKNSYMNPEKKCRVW

For `NCC(=O)N[C@H](C[C@@H](Cc1ccc(-c2ccccc2F)cc1)NC(=O)c1c[nH]nn1)C(=O)O` [Example 32, (2R,4R)-2-(2-Aminoacetylamino)-5-(2′-fluorobiphenyl-4-yl)-4-[(1H-[1,2,3]triazole-4-carbonyl)amino]pentanoic Acid], the Ki lay in the range of 3.16 to 10 nM.

For the molecule `NCC(=O)N[C@H](C[C@@H](Cc1ccc(-c2cc(Cl)ccc2F)cc1)NC(=O)c1c[nH]nn1)C(=O)O` [Example 33, (2R,4R)-2-(2-Aminoacetylamino)-5-(5′-chloro-2′-fluoro-biphenyl-4-yl)-4-[(1H-[1,2,3]triazole-4-carbonyl)amino]pentanoic Acid], the pKi result is listed as “≧9.0”.

In the case of `CC(C)c1coc(C(=O)N[C@H](Cc2ccc(-c3cc(Cl)ccc3F)cc2)C[C@@H](NC(=O)CN)C(=O)O)n1` [Example 34-1, (2R,4R)-2-(2-Aminoacetylamino)-5-(5′-chloro-2′-fluorobiphenyl-4-yl)-4-[(4-isopropyloxazole-2-carbonyl)amino]pentanoic acid], the Ki is 1.26 to 3.16 nM.

`CC(C)c1coc(C(=O)N[C@H](Cc2ccc(-c3cc(Cl)ccc3F)cc2)C[C@@H](NC(=O)C(C)(C)N)C(=O)O)n1` [Example 35, (2R,4R)-2-(2-Amino-2-methylpropionylamino)-5-(5′-chloro-2′-fluorobiphenyl-4-yl)-4-[(4-isopropyloxazole-2-carbonyl)amino]pentanoic Acid]: the Ki lay within 3.16 to 10 nM.

In the case of `CC(C)c1coc(C(=O)N[C@H](Cc2ccc(-c3cc(Cl)ccc3F)cc2)C[C@@H](NC(=O)[C@H](C)N)C(=O)O)n1` [Example 36-1, (2R,4R)-2-((S)-2-Aminopropionylamino)-5-(5′-chloro-2′-fluorobiphenyl-4-yl)-4-[(4-isopropyloxazole-2-carbonyl)amino]pentanoic Acid], the inhibition constant Ki is 1.26 to 3.16 nM.

Consider `CC(C)c1coc(C(=O)N[C@H](Cc2ccc(-c3cc(Cl)ccc3F)cc2)C[C@@H](NC(=O)[C@@H](C)N)C(=O)O)n1` [Example 36-2, (2R,4R)-2-((R)-2-Aminopropionylamino)-5-(5′-chloro-2′-fluorobiphenyl-4-yl)-4-[(4-isopropy-oxazole-2-carbonyl)-amino]pentanoic Acid], for which the Ki lay within 1.26 to 3.16 nM.

In the case of `C[C@H](N)C(=O)N[C@H](C[C@@H](Cc1ccc(-c2cc(Cl)ccc2F)cc1)NC(=O)c1cnn[nH]1)C(=O)O` [Example 37-1, (2R,4R)-2-((S)-2-Aminopropionylamino)-5-(5′-chloro-2′-fluorobiphenyl-4-yl)-4-[(3H-[1,2,3]triazole-4-carbonyl)amino]pentanoic acid], the pKi result was “≧9.0”.

As for `CC(C)c1coc(C(=O)N[C@H](Cc2ccc(-c3cc(Cl)ccc3F)cc2)C[C@@H](NC(=O)[C@H](N)C(C)C)C(=O)O)n1` [Example 38-1, (2R,4R)-2-((R)-2-Amino-3-methylbutyrylamino)-5-(5′-chloro-2′-fluorobiphenyl-4-yl)-4-[(4-isopropyloxazole-2-carbonyl)amino]pentanoic Acid], the inhibitory constant (Ki) was 3.16 to 10 nM.

As for `CC(C)c1coc(C(=O)N[C@H](Cc2ccc(-c3cc(Cl)ccc3F)cc2)C[C@@H](NC(=O)[C@@H](N)C(C)C)C(=O)O)n1` [Example 38-2, (2R,4R)-2-((S)-2-Amino-3-methylbutyrylamino)-5-(5′-chloro-2′-fluorobiphenyl-4-yl)-4-[(4-isopropyloxazole-2-carbonyl)-amino]pentanoic Acid], the inhibition constant (Ki) is 1.26 to 3.16 nM.

Turning to `CC(C)[C@H](N)C(=O)N[C@H](C[C@@H](Cc1ccc(-c2cc(Cl)ccc2F)cc1)NC(=O)c1cnn[nH]1)C(=O)O` [Example 39-1, (2R,4R)-2-((S)-2-Amino-3-methylbutyrylamino)-5-(5′-chloro-2′-fluorobiphenyl-4-yl)-4-[(3H-[1,2,3]triazole-4-carbonyl)amino]pentanoic acid], the pKi entry was “≧9.0”.

For `NCCCC(=O)N[C@H](C[C@@H](Cc1ccc(-c2cc(Cl)ccc2F)cc1)NC(=O)c1cnn[nH]1)C(=O)O` [Example 40, (2R,4R)-2-(4-Aminobutyrylamino)-5-(5′-chloro-2′-fluorobiphenyl-4-yl)-4-[(3H-[1,2,3]triazole-4-carbonyl)amino]pentanoic Acid], the inhibition constant Ki was at most 1 nM.

In the case of `NCCC(=O)N[C@H](C[C@@H](Cc1ccc(-c2cc(Cl)ccc2F)cc1)NC(=O)c1cnn[nH]1)C(=O)O` [Example 41, (2R,4R)-2-(3-Aminopropionylamino)-5-(5′-chloro-2′-fluoro-biphenyl-4-yl)-4-[(3H-[1,2,3]triazole-4-carbonyl)amino]pentanoic Acid], the pKi entry is listed as “≧9.0”.

In the case of `CC(C)c1coc(C(=O)N[C@H](Cc2ccc(-c3cc(Cl)ccc3F)cc2)C[C@@H](NC(=O)[C@H](N)CO)C(=O)O)n1` [Example 42-1, (2R,4R)-2-((R)-2-Amino-3-hydroxypropionylamino)-5-(5′-chloro-2′-fluorobiphenyl-4-yl)-4-[(4-isopropyloxazole-2-carbonyl)-amino]pentanoic Acid], the inhibitory constant (Ki) fell in the range of 1.26 to 3.16 nM.

For `CC(C)c1coc(C(=O)N[C@H](Cc2ccc(-c3cc(Cl)ccc3F)cc2)C[C@@H](NC(=O)[C@@H](N)CO)C(=O)O)n1` [Example 42-2, (2R,4R)-2-((S)-2-Amino-3-hydroxypropionylamino)-5-(5′-chloro-2′-fluorobiphenyl-4-yl)-4-[(4-isopropyloxazole-2-carbonyl)amino]pentanoic Acid], the Ki was 1.26 to 3.16 nM.

With `Cc1cnc(C(=O)N[C@H](Cc2ccc(-c3cc(Cl)ccc3F)cc2)C[C@@H](CNC(=O)CN)C(=O)O)o1` [Example 43, (2S,4S)-2-[(2-Aminoacetylamino)methyl]-5-(5′-chloro-2′-fluorobiphenyl-4-yl)-4-[(5-methyloxazole-2-carbonyl)amino]pentanoic Acid], the Ki was at most 1 nM.

For `NCC(=O)NC[C@H](C[C@@H](Cc1ccc(-c2cc(Cl)ccc2F)cc1)NC(=O)c1cnn[nH]1)C(=O)O` [Example 44-1, (2S,4S)-2-[(2-Aminoacetylamino)methyl]-5-(5′-chloro-2′-fluorobiphenyl-4-yl)-4-[(3H-[1,2,3]triazole-4-carbonyl)amino]pentanoic acid], the pKi result is “≧9.0”.

Regarding `Cc1cnc(C(=O)N[C@H](Cc2ccc(-c3cc(Cl)ccc3F)cc2)C[C@@H](CNC(=O)C(C)(C)N)C(=O)O)o1` [Example 45, (2S,4S)-2-[(2-Amino-2-methylpropionylamino)methyl]-5-(5′-chloro-2′-fluorobiphenyl-4-yl)-4-[(5-methyloxazole-2-carbonyl)-amino]pentanoic Acid], the Ki was at most 1 nM.

For the molecule `COC(=O)N[C@H](C(=O)N[C@H](C[C@@H](Cc1ccc(-c2cc(Cl)ccc2F)cc1)NC(=O)c1c[nH]nn1)C(=O)O)C(C)C` [Example 46, (2R,4R)-5-(5′-Chloro-2′-fluorobiphenyl-4-yl)-2-((S)-2-methoxycarbonylamino-3-methylbutyrylamino)-4-[(1H-[1,2,3]triazole-4-carbonyl)amino]pentanoic Acid], the Ki is 1.26 to 3.16 nM.

Take `CS(=O)(=O)N[C@H](C[C@@H](Cc1ccc(-c2ccccc2)cc1)NC(=O)c1c[nH]nn1)C(=O)O` [Example 47, (2R,4R)-5-Biphenyl-4-yl-2-methanesulfonylamino-4-[(1H-[1,2,3]triazole-4-carbonyl)amino]pentanoic Acid]: the inhibition constant Ki lay in the range of 3.16 to 10 nM.

In the case of `N#CC[C@H](C[C@@H](Cc1ccc(-c2ccccc2)cc1)NC(=O)c1cnn[nH]1)C(=O)O` [Example 50, (2S,4S)-5-Biphenyl-4-yl-2-cyanomethyl-4-[(3H-[1,2,3]triazole-4-carbonyl)amino]pentanoic Acid], the pKi result is recorded as “≧9.0”.

For `N#CC[C@H](C[C@@H](Cc1ccc(-c2cc(Cl)ccc2F)cc1)NC(=O)c1c[nH]nn1)C(=O)O` [Example 51, (2S,4S)-5-(5′-chloro-2′-fluorobiphenyl-4-yl)-2-cyanomethyl-4-[(3H-[1,2,3]triazole-4-carbonyl)amino]pentanoic acid], the Ki lay within 1.26 to 3.16 nM.

Regarding `N#CC[C@H](C[C@@H](Cc1ccc(-c2cc(Cl)ccc2F)cc1)NC(=O)c1cnsc1)C(=O)O` [Example 52-3, (2S,4S)-5-(5′-Chloro-2′-fluorobiphenyl-4-yl)-2-cyanomethyl-4-[(isothiazole-4-carbonyl)amino]pentanoic acid], the inhibitory constant (Ki) fell in the range of 1.26 to 3.16 nM.

Take `NC(=O)C[C@H](C[C@@H](Cc1ccc(-c2ccccc2)cc1)NC(=O)c1cnn[nH]1)C(=O)O` [Example 53, (2S,4S)-5-Biphenyl-4-yl-2-carbamoylmethyl-4-[(3H-[1,2,3]triazole-4-carbonyl)amino]pentanoic Acid]: the pKi result is recorded as “≧9.0”.

`NC(=O)C[C@@H](C[C@@H](Cc1ccc(-c2cccc(F)c2)cc1)NC(=O)c1cnn[nH]1)C(=O)O` [Example 54, (2R,4S)-2-Carbamoylmethyl-5-(3′-fluorobiphenyl-4-yl)-4-[(3H-[1,2,3]triazole-4-carbonyl)amino]pentanoic Acid]: the inhibition constant (Ki) lay within 1.26 to 3.16 nM.

`O=C(N[C@H](Cc1ccc(-c2cc(Cl)ccc2F)cc1)C[C@@H](NC(=O)[C@@H]1CCCN1)C(=O)O)c1cnn[nH]1` [Example 55, (2R,4R)-5-(5′-Chloro-2′-fluorobiphenyl-4-yl)-2-[((S)-pyrrolidine-2-carbonyl)amino]-4-[(3H-[1,2,3]triazole-4-carbonyl)amino]pentanoic Acid]: the inhibition constant Ki fell in the range of 3.16 to 10 nM.

Regarding `NCCCC[C@H](N)C(=O)N[C@H](C[C@@H](Cc1ccc(-c2cc(Cl)ccc2F)cc1)NC(=O)c1cnn[nH]1)C(=O)O` [Example 56, (2R,4R)-5-(5′-Chloro-2′-fluorobiphenyl-4-yl)-2-((S)-2,6-diaminohexanoylamino)-4-[(3H-[1,2,3]triazole-4-carbonyl)amino]pentanoic Acid], the Ki fell in the range of 1.26 to 3.16 nM.

As to `N[C@@H](Cc1ccccc1)C(=O)N[C@H](C[C@@H](Cc1ccc(-c2cc(Cl)ccc2F)cc1)NC(=O)c1cnn[nH]1)C(=O)O` [Example 57, (2R,4R)-2-((S)-2-Amino-3-phenylpropionylamino)-5-(5′-chloro-2′-fluorobiphenyl-4-yl)-4-[(3H-[1,2,3]triazole-4-carbonyl)amino]pentanoic Acid], the pKi result is listed as “≧9.0”.
